In PubChem BioAssay AID2060490 (Molecular Pharmacology Branch, DTP, NCI, 2025):

Tested on: 885512-296-R-J2-PDC complex spheroid viability
Test: Anticancer human tumor 885512-296-R-J2-PDC patient-derived breast carcinoma cell line growth inhibition [GQUAD]
Conditions: for IC50: curve of first compound; for viability, T/C: stronger effect = lower value; active means viability on the fitted dose curve at most 10% of control; inactive means the rest
Procedure, shortened: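 Viability of tumor cells grown as complex spheroids with endothelial and stromal cells, exposed to drug combinations. Top concentration at or near clinical Cmax (else 10 microM), diluted in half-log increments.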

[1] = second compound 0.0316 µM, first compound 0.0316 µM
[2] = second compound 0.0316 µM, first compound 0.1 µM
[3] = second compound 0.0316 µM, first compound 0.316 µM
[4] = second compound 0.0316 µM, first compound 1 µM
[5] = second compound 0.0316 µM, first compound 3.16 µM
[6] = second compound 0.0316 µM, first compound 10 µM
[7] = second compound 0.1 µM, first compound 0.0316 µM
[8] = second compound 0.1 µM, first compound 0.1 µM
[9] = second compound 0.1 µM, first compound 0.316 µM
[10] = second compound 0.1 µM, first compound 1 µM
[11] = second compound 0.1 µM, first compound 3.16 µM
[12] = second compound 0.1 µM, first compound 10 µM
[13] = second compound 0.316 µM, first compound 0.0316 µM
[14] = second compound 0.316 µM, first compound 0.1 µM
[15] = second compound 0.316 µM, first compound 0.316 µM
[16] = second compound 0.316 µM, first compound 1 µM
[17] = second compound 0.316 µM, first compound 3.16 µM
[18] = second compound 0.316 µM, first compound 10 µM
[19] = second compound 1 µM, first compound 0.0316 µM
[20] = second compound 1 µM, first compound 0.1 µM
[21] = second compound 1 µM, first compound 0.316 µM
[22] = second compound 1 µM, first compound 1 µM
[23] = second compound 1 µM, first compound 3.16 µM
[24] = second compound 1 µM, first compound 10 µM
[25] = second compound 3.16 µM, first compound 0.0316 µM
[26] = second compound 3.16 µM, first compound 0.1 µM
[27] = second compound 3.16 µM, first compound 0.316 µM
[28] = second compound 3.16 µM, first compound 1 µM
[29] = second compound 3.16 µM, first compound 3.16 µM
[30] = second compound 3.16 µM, first compound 10 µM
[31] = second compound 10 µM, first compound 0.0316 µM
[32] = second compound 10 µM, first compound 0.1 µM
[33] = second compound 10 µM, first compound 0.316 µM
[34] = second compound 10 µM, first compound 1 µM
[35] = second compound 10 µM, first compound 3.16 µM
[36] = second compound 10 µM, first compound 10 µM
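Further: spheroids exposed to the compounds for one week.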
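Wherever viability, T/C is given: percent of tumor spheroid viability relative to DMSO vehicle control wells.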

CC1COCCN1c1cc(C2(O)CC3CCC(C2)O3)c2cnn(-c3ccn[nH]3)c2n1 (stereo unspecified) + Cc1[nH]c2ccc(F)cc2c1-c1nc2c3cccnc3c3ncccc3c2[nH]1
inactive: viability, T/C [1] 34.7% | viability, T/C [7] 29.1% | viability, T/C [13] 14.5%
active: viability, T/C [2] 5.25% | viability, T/C [3] 3.32% | viability, T/C [4] 4.26% | viability, T/C [5] 6.56% | viability, T/C [6] 9.72% | viability, T/C [8] 4.51% | viability, T/C [9] 2.65% | viability, T/C [10] 4.14% | viability, T/C [11] 6.29% | viability, T/C [12] 8.64% | viability, T/C [14] 3.01% | viability, T/C [15] 3.13% | viability, T/C [16] 3.89% | viability, T/C [17] 7.17% | viability, T/C [18] 8.72% | viability, T/C [19] 3.34% | viability, T/C [20] 3.2% | viability, T/C [21] 2.99% | viability, T/C [22] 3.85% | viability, T/C [23] 7.13% | viability, T/C [24] 4.46% | viability, T/C [25] 1.99% | viability, T/C [26] 1.52% | viability, T/C [27] 2.56% | viability, T/C [28] 3.64% | viability, T/C [29] 4.56% | viability, T/C [30] 3.61% | viability, T/C [31] 1.09% | viability, T/C [32] 1.19% | viability, T/C [33] 1.76% | viability, T/C [34] 2.85% | viability, T/C [35] 4.02% | viability, T/C [36] 3.55%
< 31.6 nM: IC50 (second compound 0.0316 µM) | IC50 (second compound 0.1 µM) | IC50 (second compound 0.316 µM) | IC50 (second compound 1 µM) | IC50 (second compound 3.16 µM) | IC50 (second compound 10 µM)

C=CC(=O)N1CCN(c2nc(=O)n(-c3c(C)ccnc3C(C)C)c3nc(-c4c(O)cccc4F)c(F)cc23)C(C)C1 (stereo unspecified) + CN(C)c1ccc(Nc2c3ccc(NC(=O)CCN4CCCC4)cc3nc3cc(NC(=O)CCN4CCCC4)ccc23)cc1
inactive: viability, T/C [1] 104% | viability, T/C [2] 94.9% | viability, T/C [3] 108% | viability, T/C [4] 103% | viability, T/C [5] 102% | viability, T/C [6] 105% | viability, T/C [7] 111% | viability, T/C [8] 99.5% | viability, T/C [9] 101% | viability, T/C [10] 108% | viability, T/C [11] 114% | viability, T/C [12] 100% | viability, T/C [13] 107% | viability, T/C [14] 97.9% | viability, T/C [15] 103% | viability, T/C [16] 119% | viability, T/C [17] 99.9% | viability, T/C [18] 105% | viability, T/C [19] 101% | viability, T/C [20] 88.8% | viability, T/C [21] 101% | viability, T/C [22] 117% | viability, T/C [23] 102% | viability, T/C [24] 108% | viability, T/C [25] 106% | viability, T/C [26] 115% | viability, T/C [27] 120% | viability, T/C [28] 129% | viability, T/C [29] 103% | viability, T/C [30] 77.7% | viability, T/C [31] 27% | viability, T/C [32] 21.7% | viability, T/C [33] 21.9% | viability, T/C [34] 18.9% | viability, T/C [35] 20.6% | viability, T/C [36] 10.3%
> 10000 nM: IC50 (second compound 0.0316 µM) | IC50 (second compound 0.1 µM) | IC50 (second compound 0.316 µM) | IC50 (second compound 1 µM) | IC50 (second compound 3.16 µM)
< 31.6 nM: IC50 (second compound 10 µM)

CC1COCCN1c1cc(-c2ccnn2C)c2ccnc(-c3ccn[nH]3)c2n1 (stereo unspecified) + Cc1cnc(CNC(=O)c2c(=O)c3ccc(N4CCCN(C)CC4)nc3n3c2sc2ccccc23)cn1
< 31.6 nM: IC50 (second compound 0.0316 µM) | IC50 (second compound 0.1 µM) | IC50 (second compound 0.316 µM) | IC50 (second compound 1 µM) | IC50 (second compound 3.16 µM) | IC50 (second compound 10 µM)
active: viability, T/C [1] 7.27% | viability, T/C [2] 3% | viability, T/C [3] 3.14% | viability, T/C [4] 2.98% | viability, T/C [5] 4.32% | viability, T/C [6] 6.71% | viability, T/C [7] 7.98% | viability, T/C [8] 3.24% | viability, T/C [9] 2.68% | viability, T/C [10] 3.6% | viability, T/C [11] 4.73% | viability, T/C [12] 6.8% | viability, T/C [13] 6.5% | viability, T/C [14] 4.72% | viability, T/C [15] 4.23% | viability, T/C [16] 4.64% | viability, T/C [17] 5.38% | viability, T/C [18] 6.91% | viability, T/C [19] 7.32% | viability, T/C [20] 5.67% | viability, T/C [21] 4.04% | viability, T/C [22] 5.5% | viability, T/C [23] 6.49% | viability, T/C [24] 7.5% | viability, T/C [25] 0.41% | viability, T/C [26] 0.9% | viability, T/C [27] 0.43% | viability, T/C [28] 5.3% | viability, T/C [29] 6.82% | viability, T/C [30] 6.13% | viability, T/C [31] 0.03% | viability, T/C [32] 0.1% | viability, T/C [33] 0.12% | viability, T/C [34] 0.06% | viability, T/C [35] 0.1% | viability, T/C [36] 0.11%
